PubChem BioAssay (NCI)
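Exposure lasted 48 hours, with cells grown in 96-well plates and compounds tested at five concentrations. GI50: concentration for 50% inhibition of growth. TGI: total growth inhibition.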

How the values were obtained:
Test in all cases: DTP human tumour cell line panel, 48 h
MDA-MB-435 = test system: MDA-MB-435
MCF7 breast = test system: MCF7 breast
T-47D breast = test system: T-47D breast
DU-145 prostate = test system: DU-145 prostate
PC-3 prostate = test system: PC-3 prostate
BT-549 breast = test system: BT-549 breast
MDA-MB-231 breast = test system: MDA-MB-231 breast

SMILES	GI50 (MDA-MB-435)	TGI (MDA-MB-435)	GI50 (MCF7 breast)	TGI (MCF7 breast)	GI50 (T-47D breast)	TGI (T-47D breast)	GI50 (DU-145 prostate)	TGI (DU-145 prostate)	GI50 (PC-3 prostate)	TGI (PC-3 prostate)	GI50 (BT-549 breast)	TGI (BT-549 breast)	GI50 (MDA-MB-231 breast)	TGI (MDA-MB-231 breast)
COc1ccc(-c2csc(NC(=O)N3CCN(c4cc5c(cc4F)c(=O)c(C(=O)O)cn5C4CC4)CC3)n2)cc1	2.54 µM	> 100 µM	2.6 µM	> 100 µM	1.57 µM	> 100 µM	1.72 µM	> 100 µM	2.98 µM	> 100 µM	0.616 µM	6.64 µM	2.71 µM	> 100 µM
N/C(=N\c1nc2ccccc2s1)NC(=O)Nc1ccccc1Cl	0.0269 µM	0.0868 µM	0.112 µM	> 100 µM	0.557 µM	> 100 µM	0.259 µM	9.28 µM	0.13 µM	> 71.9 µM	0.421 µM	4.86 µM	0.431 µM	8.21 µM
CN(C)CCCN=c1cc2c(=O)n(CCCN(C)C)c(=O)c3c(NCCCN(C)C)cc4c(O)n(CCCN(C)C)c(=O)c1c4c3-2	3.41 µM	14.9 µM	0.409 µM	9.4 µM	2.35 µM	16.9 µM	2.5 µM	9.51 µM	2.79 µM	34.1 µM	11.2 µM	31.4 µM	3.02 µM	16.3 µM
COc1ccc(C(=O)C(Br)C(Br)C(=O)O)cc1 (stereo not given)		> 100 µM		> 100 µM		> 100 µM		> 100 µM		> 100 µM		63.7 µM		> 100 µM
COC1OC(CBr)C(OC(c2ccccc2)(c2ccccc2)c2ccccc2)C(OC(c2ccccc2)(c2ccccc2)c2ccccc2)C1OC(c1ccccc1)(c1ccccc1)c1ccccc1 (stereo not given)		> 100 µM		> 100 µM		> 100 µM		> 100 µM				> 100 µM		
N#C/C(=C/C=C/c1ccccc1)S(=O)c1ccccc1 (stereo not given)	0.485 µM	1.83 µM			0.298 µM	5.62 µM	0.316 µM	1.2 µM	1.35 µM	3.33 µM	0.712 µM	2.35 µM	0.371 µM	1.56 µM
CN(C1=NS(=O)(=O)N=C(N(C)c2ccccc2)O1)c1ccccc1		30.4 µM		38.9 µM		45.5 µM		61.7 µM		> 100 µM		39 µM		41 µM
N=C1C(c2nc3ccccc3s2)=C(O)CN1c1ccc(Cl)cc1Cl	16.5 µM	> 100 µM	41.2 µM	> 100 µM	44.9 µM	> 100 µM	18.9 µM	63.7 µM	11.5 µM	29 µM	17.8 µM	49.6 µM	17.1 µM	42.9 µM
O=C1C(Cl)=C(Nc2cccc(O)c2)C(=O)N1c1cccc(Cl)c1	43 µM	> 100 µM	36 µM	> 100 µM	67.2 µM	> 100 µM	69.5 µM	> 100 µM	21.4 µM	> 100 µM	27.3 µM	> 100 µM	35.8 µM	> 100 µM
O=C1/C(=C/c2ccccc2Br)COc2ccc(O)c(O)c21	1.14 µM	4.91 µM	0.583 µM	6.02 µM	2.25 µM	11.4 µM	1.49 µM	3.23 µM	1.04 µM	9.89 µM	2.17 µM	5.95 µM	1.42 µM	6.17 µM
COc1cc2c(=O)n(CCCn3ccnc3)c3c4cc5c(cc4ccc3c2cc1OC)OCO5			0.0999 µM	> 100 µM	0.245 µM	7.82 µM	0.51 µM	> 100 µM	0.774 µM	> 100 µM	0.701 µM	> 100 µM	1.38 µM	> 100 µM
CCC(c1ccc(OC)cc1)C(CC)c1ccc(O)c(CN2CCCC2)c1 (stereo not given)	2.01 µM	4.76 µM	2.74 µM	6.47 µM	2.1 µM	6.4 µM	5.8 µM	19.1 µM	3.38 µM	14.3 µM	3.27 µM	11.5 µM	2.49 µM	6.03 µM
CNC(=O)c1cncc(/C=C/c2c(C)cccc2C)c1	> 25 µM	> 25 µM	> 25 µM	> 25 µM	> 25 µM	> 25 µM	> 25 µM	> 25 µM	> 25 µM	> 25 µM	> 25 µM	> 25 µM	21.1 µM	> 25 µM
Cc1ccc2c(N/N=C\c3ccco3)cc(C)nc2n1	2.63 µM	10.7 µM	3.28 µM	15.5 µM			6.79 µM	20.1 µM	6.26 µM	22.5 µM	4.37 µM	14.9 µM	3.53 µM	13.5 µM
O=C1/C(=C/c2ccccc2)CN(CCC(=O)N2C/C(=C\c3ccccc3)C(=O)/C(=C/c3ccccc3)C2)C/C1=C\c1ccccc1	0.683 µM	5.68 µM	0.182 µM	26.3 µM	13.5 µM	75.3 µM	21.1 µM	73.9 µM	6.02 µM	> 69.9 µM	9.91 µM	36.4 µM	10.7 µM	56.2 µM
CCC1CCCCN1C(=S)N/N=C(\C)c1ccccn1 (stereo not given)	0.127 µM	1.79 µM	< 0.0121 µM	4.2 µM	< 0.0146 µM	1.63 µM	0.292 µM	3.75 µM	0.0195 µM	2.99 µM	0.092 µM	2.72 µM	0.0922 µM	3.69 µM
COc1ccccc1N1CCN(C(=O)c2ccc(NS(=O)(=O)c3cccc4cccnc34)cc2)CC1	> 100 µM	> 100 µM	> 49.4 µM	> 100 µM	> 22.1 µM	> 100 µM	> 100 µM	> 100 µM	> 100 µM	> 100 µM	> 76.5 µM	> 100 µM	> 53.6 µM	> 100 µM
CN(C)Cc1cccc(CN(C)C)[c]1[Sn]([Br])([c]1ccccc1)[c]1ccccc1	17.1 µM	41.6 µM	10.5 µM	24.5 µM	4.72 µM	21.5 µM	20.2 µM	49.5 µM	17.1 µM	96.9 µM	1.83 µM	7.94 µM	15.9 µM	38.3 µM

SMILES	GI50 (MDA-MB-435)	TGI (MDA-MB-435)	GI50 (MCF7 breast)	TGI (MCF7 breast)	GI50 (T-47D breast)	TGI (T-47D breast)	GI50 (DU-145 prostate)	TGI (DU-145 prostate)	GI50 (PC-3 prostate)	TGI (PC-3 prostate)	GI50 (BT-549 breast)	TGI (BT-549 breast)	GI50 (MDA-MB-231 breast)	TGI (MDA-MB-231 breast)
Cc1ccc(C(=O)CCC2C(=O)CC(C)(C)CC2=O)cc1		> 100 µM		> 100 µM				> 100 µM		> 100 µM		> 100 µM		> 100 µM
O=C1CC2C(=O)C1C(C(=O)O)C2C(=O)O (stereo not given)		> 100 µM		> 100 µM		> 100 µM		> 100 µM		> 100 µM		> 100 µM		> 100 µM
CCCCNC(=O)Oc1ccc2c(=O)c3sc4c(=O)c5ccccc5c(=O)c4c3c(=O)c2c1	0.172 µM	0.328 µM	0.429 µM	2.18 µM	2.11 µM	5.4 µM	0.158 µM	0.294 µM			0.154 µM	0.293 µM	1.39 µM	5.91 µM
CC(=O)Nc1ccc2oc(=O)c3ccccc3c2c1		> 100 µM		> 100 µM		> 100 µM		> 100 µM		> 100 µM		> 100 µM		
NC(=O)c1cc(Cl)ccc1NC(=O)c1ccccc1-c1ccccc1			0.457 µM	> 100 µM	1.74 µM	64.4 µM	0.597 µM	16 µM	0.567 µM	> 100 µM	0.572 µM	52.7 µM	1.89 µM	43.5 µM
CC1OC(O[C@H]2/C=C/C=C/C=C/C=C/C=C/C=C/C=C/[C@H](C)[C@@H](O)[C@@H](C)[C@H](C)OC(=O)C[C@H](O)C[C@H](O)CC[C@@H](O)[C@H](O)C[C@H](O)C[C@]3(O)C[C@H](O)[C@@H](C(=O)O)[C@H](C2)O3)C(O)C(N)C1O (stereo not given in full)	7.94 µM	19.3 µM		56.1 µM	52.3 µM	> 86.8 µM	12.7 µM	39.2 µM		31.8 µM	20.6 µM	68.1 µM	32.9 µM	48.2 µM
COc1cc(C)[nH]c(=O)c1CN1CCc2c(Cl)cc([C@H](OC)C3COC3)c(Cl)c2C1=O	> 100 µM	> 100 µM	> 100 µM	> 100 µM	55.4 µM	> 100 µM	> 100 µM	> 100 µM	> 100 µM	> 100 µM	> 100 µM	> 100 µM	> 100 µM	> 100 µM
COc1cccc(-c2nc(-c3ccc(NC(=O)c4ccccc4)cc3)[nH]c2-c2ccnc(Br)c2)c1	4.72 µM	> 100 µM	2.4 µM	> 100 µM	2.44 µM	> 100 µM			3.25 µM	> 100 µM	3.3 µM	> 100 µM	3.97 µM	> 100 µM
O=C(Nc1ccc(Cl)cc1)c1cc2cc(F)ccc2cc1O	1.96 µM	8.8 µM	1.54 µM	6.51 µM	0.941 µM	5.36 µM	2.18 µM	> 100 µM	1.94 µM	> 100 µM	1.35 µM	5.12 µM	1.55 µM	5.29 µM
C=C1SC(=Nc2ccccc2Cl)N(C(=O)c2sc3ccccc3c2Cl)C1(C)C	17.3 µM	97 µM	3.76 µM	> 51.7 µM	3.09 µM	26.8 µM	11.3 µM	> 100 µM	4.68 µM	> 100 µM	10 µM	49.2 µM	8.68 µM	59.5 µM
N#Cc1nn(C2OC(COC(=O)c3ccccc3)C(OC(=O)c3ccccc3)C2OC(=O)c2ccccc2)c2nc[nH]c(=O)c12 (stereo not given)		> 100 µM		> 100 µM		> 100 µM		> 100 µM		> 100 µM				> 100 µM
O=C(O[C@H]1CN[C@H](C#Cc2cc3ncnc(Nc4ccc(OCc5cccc(F)c5)c(Cl)c4)c3s2)C1)N1CCOCC1	9.85 µM	> 25 µM	8.57 µM	> 25 µM	1.55 µM	> 25 µM	5.96 µM	> 25 µM	4.93 µM	> 25 µM	4.28 µM	8.69 µM	5.09 µM	14.5 µM
ClC1(c2ccccc2)c2ccc(Br)cc2-c2cc(Br)ccc21		27.4 µM		36 µM		58.3 µM		48.1 µM		31.3 µM		37.7 µM		30.7 µM
COc1cc([C@@H]2c3cc4c(cc3[C@H](OC(C)=O)[C@H]3COC(=O)[C@H]23)OCO4)cc(OC)c1OC	0.0192 µM	0.0533 µM			0.0669 µM	> 100 µM	0.0412 µM	> 100 µM	0.0371 µM	> 100 µM	0.0311 µM	21.9 µM	0.0416 µM	> 100 µM
C/C=C1\C(=O)O[C@@H]2C1C[C@@H]1O[C@H]2[C@H](C)CCC/C(C)=C/CC[C@@]1(C)O (stereo not given in full)	6.67 µM	22.9 µM	2.33 µM	6.1 µM	42.7 µM	> 100 µM			11.8 µM	25.8 µM			8.36 µM	21.7 µM
CC1(C)CCC2(C(=O)O)CC[C@]3(C)C(=CCC4C5(C)CC[C@H](OC6OC(C(=O)O)C(O)C(OC7OC(CO)C(O)C(O)C7O)C6OC6OC(CO)C(O)C(O)C6O)C(C)(C)C5CCC43C)C2C1 (stereo not given in full)	> 100 µM	> 100 µM	53.5 µM	> 100 µM	> 100 µM	> 100 µM			20.6 µM	38.5 µM	> 100 µM	> 100 µM	45 µM	> 100 µM
Oc1cccc(Cn2c(-c3cccc(O)c3O)nc3ccccc32)c1O	2.13 µM	15.3 µM	1.44 µM	13.8 µM			4.89 µM	20.5 µM	6.69 µM	34.2 µM	18.9 µM	81.1 µM	0.92 µM	7.71 µM
NCCCn1c2c(c3cc4c(cc3c1=O)OCO4)C(=O)c1ccccc1-2	0.567 µM	1.42 µM			5.18 µM	> 100 µM	0.907 µM	2.63 µM	0.134 µM	0.6 µM			1.45 µM	2.88 µM
